In patent US12071434B2, “Heterocyclic compound” (Takeda Pharmaceutical Company Limited, priority 2018, dated 2024):
One block for each compound: values may come before it.

Molecular target: T1, human orexin type 2 receptor (Homo sapiens, UniProt O43614)
T1 construct: expressed in transfected cells
T1 sequence (O43614 1-444): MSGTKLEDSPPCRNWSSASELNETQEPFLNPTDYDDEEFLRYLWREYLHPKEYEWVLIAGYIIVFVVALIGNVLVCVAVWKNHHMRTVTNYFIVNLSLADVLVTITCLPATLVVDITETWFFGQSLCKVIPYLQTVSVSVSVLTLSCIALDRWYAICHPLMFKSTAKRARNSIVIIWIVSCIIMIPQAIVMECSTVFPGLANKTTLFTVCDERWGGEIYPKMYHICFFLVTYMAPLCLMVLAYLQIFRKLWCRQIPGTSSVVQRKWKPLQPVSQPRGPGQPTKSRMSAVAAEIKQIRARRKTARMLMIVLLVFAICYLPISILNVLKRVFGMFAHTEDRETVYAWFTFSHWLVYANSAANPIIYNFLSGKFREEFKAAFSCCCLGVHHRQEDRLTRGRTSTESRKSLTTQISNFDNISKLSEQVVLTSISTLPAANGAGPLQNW
Test: Measurement of orexin type 2 receptor agonist activity (calcium fluorescence, Fluo-4 AM, FDSS) in CHO cells forcibly expressing human OX2 receptor
Assay type: cell-based
Details: test compound 3 μM, DMSO = 0%, orexin A (human) 10 nM = 100%
Excerpt: To obtain a cell clone stably expressing human orexin type 2 receptor, human orexin type 2 receptor cDNA was inserted into pcDNA3.1(+) plasmid vector (Invitrogen), and a plasmid DNA for expression of human orexin type 2 receptor (pcDNA3.1(+)/hOX2R) was cloned. The plasmid DNA was introduced into CHO-dhfr cell by an electroporation method, and human orexin type 2 receptor expressing clone cells were obtained by limiting dilution method by using G418 drug resistance as a selection marker.
CHO cells forcibly expressing human OX2 receptor were seeded in each well of 384 well black transparent bottom plate (BD Falcon) at 7,500 cells/well, and cultured for one day in a 5% CO2 incubator at 37° C. After removal of the medium in the cell plate, assay buffer A containing a calcium indicator (HBSS (Thermo Fisher Scientific), 20 mM HEPES (Thermo Fisher Scientific), 0.1% BSA (Sigma-Aldrich), 2.5 μg/mL Fluo-4 AM (DOJINDO Chemical), 0.08% Pluronic F127 (DOJINDO Chemical), 1.25 mM probenecid (DOJINDO Chemical)) was added at 30 μL/well. The plate was stood for 30 min in a 5% CO2 incubator at 37° C., and further stood at room temperature for 30 min. A test compound prepared by diluting with assay buffer B (HBSS, 20 mM HEPES, 0.1% BSA) was added at 10 μL/well, and the fluorescence value was measured by FDSSpCELL (Hamamatsu Photonics K.K.) every one sec for 1 min, and thereafter every two sec for 1 min 40 sec. The activity (%) of the test compound was calculated assuming that variation in the fluorescence value when DMSO was added instead of the test compound was 0%, and variation in the fluorescence value when orexin A (human) (PEPTIDE INSTITUTE, INC.) was added at the final concentration of 10 nM was 100%.

SMILES: Cn1cc2n(c1=O)[C@@H](Cc1cccc(-c3cc(F)cc(F)c3)c1)[C@@H](NS(C)(=O)=O)CC2 (racemic) [Example 201, rac-N-{(5S,6S)-5-[(3′,5′-difluoro[1,1′-biphenyl]-3-yl)methyl]-2-methyl-3-oxo-2,3,5,6,7,8-hexahydroimidazo[1,5-a]pyridin-6-yl}methanesulfonamide]
0X2R agonist activity (3 μM, %): 91%

SMILES: CCc1ccc2n(c1=O)[C@@H](Cc1cccc(-c3cc(F)cc(F)c3)c1F)[C@@H](NS(C)(=O)=O)CC2 (racemic) [Example 132, rac-N-{[3S,4S)-7-ethyl-6-oxo-4-[(2,3′,5′-trifluoro[1,1′-biphenyl]-3-yl)methyl]-1,3,4,6-tetrahydro-2H-quinolizin-3-yl}methanesulfonamide]
0X2R agonist activity (3 μM, %): 104%

SMILES: CC(C)n1cnc2c(c1=O)[C@@H](Cc1cccc(-c3ccccc3F)c1F)[C@@H](NS(=O)(=O)C1(F)CC1)CC2 [Example 183, N-[(5R,6S)-5-[(2,2′-difluoro[1,1′-biphenyl]-3-yl)methyl]-4-oxo-3-(propan-2-yl)-3,4,5,6,7,8-hexahydroquinazolin-6-yl]-1-fluorocyclopropane-1-sulfonamide]
0X2R agonist activity (3 μM, %): 95%

SMILES: Cc1ccc2n(c1=O)C(Cc1cccc(-c3cccc(F)c3)c1)C(NC(=O)[C@@H]1CCCO1)CC2 (stereo in doubt) [Example 44, (2S)-N-{(3S*,4S*)-4-[(3′-fluoro[1,1′-biphenyl]-3-yl)methyl]-7-methyl-6-oxo-1,3,4,6-tetrahydro-2H-quinolizin-3-yl}oxolane-2-carboxamide]
0X2R agonist activity (3 μM, %): 96%

SMILES: CC(C)n1cc2n(c1=O)[C@@H](Cc1cccc(-c3ccccc3)c1)[C@@H](NS(C)(=O)=O)CC2 (racemic) [Example 203, rac-N-[(5S,6S)-5-[([1,1′-biphenyl]-3-yl)methyl]-3-oxo-2-(propan-2-yl)-2,3,5,6,7,8-hexahydroimidazo[1,5-a]pyridin-6-yl]methanesulfonamide]
0X2R agonist activity (3 μM, %): 86%

SMILES: CC(C)n1cnc2c(c1=O)C(Cc1cccc(-c3ccccc3)c1)C(NS(C)(=O)=O)C(F)C2=O (racemic) [Example 179, N-[(5RS,6RS)-5-[([1,1′-biphenyl]-3-yl)methyl]-7-fluoro-4,8-dioxo-3-(propan-2-yl)-3,4,5,6,7,8-hexahydroquinazolin-6-yl]methanesulfonamide]
0X2R agonist activity (3 μM, %): 100%

SMILES: CC(C)n1cnc2c(c1=O)[C@@H](Cc1cccc(-c3cc(F)cc(F)c3)c1)[C@@H](NS(=O)(=O)C1CC1)CC2 [Example 175, N-[(5R,6S)-5-[(3′,5′-difluoro[1,1′-biphenyl]-3-yl)methyl]-4-oxo-3-(propan-2-yl)-3,4,5,6,7,8-hexahydroquinazolin-6-yl]cyclopropanesulfonamide]
0X2R agonist activity (3 μM, %): 85%

SMILES: COC1(C(=O)N[C@H]2CCc3ccc(C)c(=O)n3[C@H]2Cc2cccc(-c3cccc(F)c3)c2F)CC1 (relative stereo) [Example 56, rel-N-{(3S,4S)-4-[(2,3′-difluoro[1,1′-biphenyl]-3-yl)methyl]-7-methyl-6-oxo-1,3,4,6-tetrahydro-2H-quinolizin-3-yl}-1-methoxycyclopropane-1-carboxamide]
0X2R agonist activity (3 μM, %): 93%

SMILES: CC(C)n1cnc2c(c1=O)[C@@H](Cc1ccccc1Oc1ccccc1)[C@@H](NS(C)(=O)=O)CC2 (racemic) [Example 133, rac-N-[(5R,6S)-4-oxo-5-[(2-phenoxyphenyl)methyl]-3-(propan-2-yl)-3,4,5,6,7,8-hexahydroquinazolin-6-yl]methanesulfonamide]
0X2R agonist activity (3 μM, %): 72%

SMILES: CCc1ccc(C[C@H]2[C@@H](NS(C)(=O)=O)CCc3ccc(C)c(=O)n32)cc1 (racemic) [Example 216, rac-N-{(3S,4S)-4-[(4-ethylphenyl)methyl]-7-methyl-6-oxo-1,3,4,6-tetrahydro-2H-quinolizin-3-yl}methanesulfonamide]
0X2R agonist activity (3 μM, %): 76%

Results, then the compound that gave them:

0X2R agonist activity (3 μM, %): 90%
SMILES: CC(C)n1cnc2c(c1=O)C(Cc1cccc(-c3cccc(F)c3)c1)C(NS(=O)(=O)C1(F)CC1)CC2 (stereo not drawn) [Example 186, rel-1-fluoro-N-{5-[(3′-fluoro[1,1′-biphenyl]-3-yl)methyl]-4-oxo-3-(propan-2-yl)-3,4,5,6,7,8-hexahydroquinazolin-6-yl}cyclopropane-1-sulfonamide]

0X2R agonist activity (3 μM, %): 93%
SMILES: CCn1ccc2c(c1=O)[C@@H](Cc1cccc(-c3ccccc3)c1F)[C@@H](NS(C)(=O)=O)C[C@@H]2F (racemic) [Example 167, rac-N-{(5S,7S,8R)-2-ethyl-5-fluoro-8-[(2-fluoro[1,1′-biphenyl]-3-yl)methyl]-1-oxo-1,2,5,6,7,8-hexahydroisoquinolin-7-yl}methanesulfonamide]

0X2R agonist activity (3 μM, %): 111%
SMILES: CC(C)n1cnc2c(c1=O)[C@@H](Cc1cccc(-c3ccccc3)c1)[C@@H](NS(=O)(=O)C1CC1)CC2 (racemic) [Example 134, rac-N-[(5R,6S)-5-[([1,1′-biphenyl]-3-yl)methyl]-4-oxo-3-(propan-2-yl)-3,4,5,6,7,8-hexahydroquinazolin-6-yl]cyclopropanesulfonamide]

0X2R agonist activity (3 μM, %): 105%
SMILES: CCn1ccc2c(c1=O)[C@@H](Cc1cccc(-c3cccc(F)c3F)c1)[C@@H](NS(C)(=O)=O)CC2 (racemic) [Example 124, rac-N-{(7S,8R)-8-[(2′,3′-difluoro[1,1′-biphenyl]-3-yl)methyl]-2-ethyl-1-oxo-1,2,5,6,7,8-hexahydroisoquinolin-7-yl}methanesulfonamide]

0X2R agonist activity (3 μM, %): 101%
SMILES: CC(C)c1nn(C)c2c(c1=O)[C@@H](Cc1cccc(-c3ccccc3)c1)[C@@H](NS(C)(=O)=O)CC2 (relative stereo) [Example 161, rel-N-[(5R,6S)-5-[([1,1′-biphenyl]-3-yl)methyl]-1-methyl-4-oxo-3-(propan-2-yl)-1,4,5,6,7,8-hexahydrocinnolin-6-yl]methanesulfonamide]

0X2R agonist activity (3 μM, %): 105%
SMILES: CCn1ccc2c(c1=O)[C@@H](Cc1cccc(-c3ccccc3F)c1)[C@@H](NS(C)(=O)=O)CC2 (racemic) [Example 119, rac-N-{(7S,8R)-2-ethyl-8-[(2′-fluoro[1,1′-biphenyl]-3-yl)methyl]-1-oxo-1,2,5,6,7,8-hexahydroisoquinolin-7-yl}methanesulfonamide]

0X2R agonist activity (3 μM, %): 107%
SMILES: CCS(=O)(=O)N[C@H]1CCc2ncn(C(C)C)c(=O)c2[C@H]1Cc1cccc(-c2cc(C)ccn2)c1 (racemic) [Example 98, rac-N-[(5R,6S)-5-{[3-(4-methylpyridin-2-yl)phenyl]methyl}-4-oxo-3-(propan-2-yl)-3,4,5,6,7,8-hexahydroquinazolin-6-yl]ethanesulfonamide]

0X2R agonist activity (3 μM, %): 95%
SMILES: CCS(=O)(=O)N[C@H]1CCc2ncn(C(C)C)c(=O)c2[C@H]1Cc1cccc(-c2cc(F)cc(F)c2)c1 [Example 177, N-[(5R,6S)-5-[(3′,5′-difluoro[1,1′-biphenyl]-3-yl)methyl]-4-oxo-3-(propan-2-yl)-3,4,5,6,7,8-hexahydroquinazolin-6-yl]ethanesulfonamide]

0X2R agonist activity (3 μM, %): 89%
SMILES: CCc1ccc2n(c1=O)[C@@H](Cc1cccc(C3CC3)c1)[C@@H](NS(C)(=O)=O)CC2 (racemic) [Example 136, rac-N-{(3S,4S)-4-[(3-cyclopropylphenyl)methyl]-7-ethyl-6-oxo-1,3,4,6-tetrahydro-2H-quinolizin-3-yl}methanesulfonamide]

0X2R agonist activity (3 μM, %): 101%
SMILES: CCn1ccc2c(c1=O)[C@@H](Cc1cccc(-c3cccc(C)c3)c1F)[C@@H](NS(C)(=O)=O)CC2 (racemic) [Example 93, rac-N-{(7S,8R)-2-ethyl-8-[(2-fluoro-3′-methyl[1,1′-biphenyl]-3-yl)methyl]-1-oxo-1,2,5,6,7,8-hexahydroisoquinolin-7-yl}methanesulfonamide]

0X2R agonist activity (3 μM, %): 94%
SMILES: Cc1ccc2n(c1=O)[C@@H](Cc1cccc(-c3cccc(F)c3)c1)[C@@H](NS(C)(=O)=O)CC2 (relative stereo) [Example 69, rel-N-{(3S,4S)-4-[(3′-fluoro[1,1′-biphenyl]-3-yl)methyl]-7-methyl-6-oxo-1,3,4,6-tetrahydro-2H-quinolizin-3-yl}methanesulfonamide]

0X2R agonist activity (3 μM, %): 103%
SMILES: CCn1ccc2c(c1=O)[C@@H](Cc1cccc(-c3cccc4c3OCC4)c1)[C@@H](NS(C)(=O)=O)CC2 (racemic) [Example 126, rac-N-[(7S,8R)-8-{[3-(2,3-dihydro-1-benzofuran-7-yl)phenyl]methyl}-2-ethyl-1-oxo-1,2,5,6,7,8-hexahydroisoquinolin-7-yl]methanesulfonamide]
